The results in this text go back to patent publication US20020082280A1, “Method of inhibiting neoplastic cells with benzimidazole derivatives” (priority 1998, published 2002).

Structures are written as SMILES.

As for `Cc1nc2ccc(C(=O)NS(=O)(=O)C(F)(F)F)cc2n1Cc1ccccc1Cl.Cl`, the melting point was 332 to 335 °C (dec.).
The figure for `O=C(O)c1ccc2nc(C3CC3)n(Cc3ccccc3F)c2c1` [Example 18, 6-Carboxy-2-Cyclopropyl-1-(2-Fluorobenzyl)Benzimidazole] is 224 to 229 °C; for `O=C(Nc1ccccn1)c1ccc2nc(C3CC3)n(Cc3ccccc3Cl)c2c1` [Example 28, 1-(2-Chlorobenzyl)-2-Cyclopropyl-6-(2-Pyridylcarbamoyl)Benzimidazole] it is 206 to 209 °C; for `CCCc1nc2ccc(C(=O)N(C)c3ccccn3)cc2n1Cc1ccccc1Cl` [Example 37, 1-(2-Chlorobenzyl)-6-[N-Methyl-N-(2-Pyridyl)carbamoyl]-2-n-Propylbenzimidazole] it is 143 to 146 °C.
Under `CCCCc1nc2ccc(C(=O)N(C)Cc3ccccn3)cc2n1Cc1ccccc1F` [Example 40, 2-n-Butyl-1-(2-Fluorobenzyl)-6-[N-Methyl-N-(2-Pyridylmethyl)Carbamoyl]Benzimidazole] stands 97 to 100 °C; under `Cc1nc2ccc(C(=O)NS(=O)(=O)c3ccccc3)cc2n1Cc1ccccc1Cl` [Example 111, 6-Benzenesulfonylcarbamoyl-1-(2-Chlorobenzyl)-2-Methylbenzimidazole], 273.5 to 274.3 °C.
Under `Cc1nc2ccc(C=CC(=O)NS(=O)(=O)c3ccccc3)cc2n1Cc1ccccc1Cl` [Example 126, N-Benzenesulfonyl-3-[1-(2-Chlorobenzyl)-2-Methylbenzimidazole-6-yl]Acrylamide] stands 243.1 to 244.3 °C; under `Cc1nc2ccc(C(=O)NS(=O)(=O)c3cccc(Cl)c3)cc2n1Cc1ccccc1Cl` [Example 156, 6-(3-Chlorobenzenesulfonylcarbamoyl)-1-(2-Chlorobenzyl)-2-Methylbenzimidazole], 254.5 to 257.5 °C (dec.).
For `COc1ccc(S(=O)(=O)NC(=O)c2ccc3nc(C)n(Cc4ccccc4Cl)c3c2)cc1` [Example 162, 1-(2-Chlorobenzyl)-6-(4-Methoxybenzenesulfonylcarbamoyl)-2-Methylbenzimidazole], the melting point was 271 to 274 °C.
As to `Cc1nc2ccc(C(=O)NS(=O)(=O)Cc3ccccc3)cc2n1Cc1ccccc1Cl` [Example 163, 1-(2-Chlorobenzyl)-2-Methyl-6-(α-Toluenesulfonylcarbamoyl)Benzimidazole], the melting point lay within 193 to 196 °C.
`Cc1ccc(C)c(S(=O)(=O)NC(=O)c2ccc3nc(C)n(Cc4ccccc4Cl)c3c2)c1` [Example 164, 1-(2-Chlorobenzyl)-6-(2,5-Dimethylbenzenesulfonylcarbamoyl)-2-Methylbenzimidazole] displayed a melting point of 266.5 to 267.5 °C.
The figure for `Cc1nc2ccc(C(=O)NS(=O)(=O)c3ccc([N+](=O)[O-])cc3)cc2n1Cc1ccccc1Cl` [Example 165, 1-(2-Chlorobenzyl)-2-Methyl-6-(4-Nitrobenzenesulfonylcarbamoyl)Benzimidazole] is 330 to 332 °C; for `Cc1nc2ccc(C(=O)NS(=O)(=O)c3ccc(C(F)(F)F)cc3)cc2n1Cc1ccccc1Cl` [Example 166, 1-(2-Chlorobenzyl)-2-Methyl-6-[4(Trifluoromethyl)Benzenesulfonylcarbamoyl]Benzimidazole] it is 288 to 292 °C.
The figure for `Cc1nc2ccc(C(=O)NS(=O)(=O)c3ccccc3Cl)cc2n1Cc1ccccc1Cl.N` [Example 167, 6-(2-Chlorobenzenesulfonylcarbamoyl)-1-(2-Chlorobenzyl)-2-Methylbenzimidazole Ammonium Salt] is 264 to 267 °C; for `Nc1nc2ccc(C(=O)NS(=O)(=O)c3ccccc3)cc2n1Cc1ccc(-c2ccccc2)cc1` [Example 172, 2-Amino-6-Benzenesulfonylcarbamoyl-1-(Biphenyl-4-ylmethyl)Benzimidazole] it is 352.5 to 355 °C; for `Cc1nc2ccc(CCC(=O)NS(=O)(=O)c3ccccc3)cc2n1Cc1ccccc1Cl` [Example 200, N-Benzenesulfonyl-3-[1-(2-chlorobenzyl)-2-methylbenzimidazole-6-yl]propionamide] it is 229.8 to 233 °C.
The figure for `CCCCS(=O)(=O)NC(=O)c1ccc2nc(C)n(Cc3ccc(C(=O)c4ccccc4)cc3)c2c1` [Example 300, 1-[(4-Benzoyl)benzyl]-6-(1-Butanesulfonylcarbamoyl)-2-Methylbenzimidazole] is 111 to 112.4 °C.

Broadly, the melting point is the temperature of the solid-liquid transition.
